Patent US10988523B2, “Modified lipidated Relaxin B chain peptides and their therapeutic use” (Sanofi, priority 2018, dated 2021)
*1 amine or outer side, *2 acyl side, *3 side chain or, on linkers, in order; H or OH if unused. Where a SMILES comes first, the peptide text is derived from it. Side-chain parts run from the residue outwards. [ ]: non-standard residue; d: D form. The star is where a group is joined. X12 = CCCCCCCCCCCCCCCC(=O)N[C@@H](CCC(=O)N[C@@H](CCC(=O)N[C@@H](CCC(=O)NCCCC[C@H](NC(=O)COCC(=O)NCCCOCCOCCOCCCNC(=O)COCC(=O)NCCCOCCOCCOCCCN*)C(N)=O)C(=O)O)C(=O)O)C(=O)O; X13 = CCCCCCCCCCCCCCCC(=O)N[C@@H](CCC(=O)N[C@@H](CCC(=O)N[C@@H](CCC(=O)NCCCC[C@H](NC(=O)COCC(=O)NCCCOCCOCCOCCCN*)C(N)=O)C(=O)O)C(=O)O)C(=O)O; PEG8 = NCCOCCOCCOCCOCCOCCOCCOCCOCCC(=O)O; γGlu = O=C(O)[C@H](CCC(=O)[*:2])N[*:1]; Stearoyl = CCCCCCCCCCCCCCCCCC(=O)*; Palmitoyl = CCCCCCCCCCCCCCCC(=O)*; Myristoyl = CCCCCCCCCCCCCC(=O)*; Nle = CCCC[C@H](N)C(=O)O; AEEA = NCCOCCOCC(=O)O; Aib = CC(C)(N)C(=O)O

Each molecule was assayed against T1, RXFP1 (Homo sapiens, UniProt Q9HBX9) (assay: OVCAR5 cAMP assay (HTRF), RXFP1 agonist activity). Settings: OVCAR5 cells, cAMP HTRF; read-out: EC50 (nM), OVCAR 5 cells (cAMP).
T1 construct: OVCAR5 cells expressing endogenous RXFP1; endogenous in cells; host or cells: OVCAR5 cells
T1 sequence (Q9HBX9 1-757): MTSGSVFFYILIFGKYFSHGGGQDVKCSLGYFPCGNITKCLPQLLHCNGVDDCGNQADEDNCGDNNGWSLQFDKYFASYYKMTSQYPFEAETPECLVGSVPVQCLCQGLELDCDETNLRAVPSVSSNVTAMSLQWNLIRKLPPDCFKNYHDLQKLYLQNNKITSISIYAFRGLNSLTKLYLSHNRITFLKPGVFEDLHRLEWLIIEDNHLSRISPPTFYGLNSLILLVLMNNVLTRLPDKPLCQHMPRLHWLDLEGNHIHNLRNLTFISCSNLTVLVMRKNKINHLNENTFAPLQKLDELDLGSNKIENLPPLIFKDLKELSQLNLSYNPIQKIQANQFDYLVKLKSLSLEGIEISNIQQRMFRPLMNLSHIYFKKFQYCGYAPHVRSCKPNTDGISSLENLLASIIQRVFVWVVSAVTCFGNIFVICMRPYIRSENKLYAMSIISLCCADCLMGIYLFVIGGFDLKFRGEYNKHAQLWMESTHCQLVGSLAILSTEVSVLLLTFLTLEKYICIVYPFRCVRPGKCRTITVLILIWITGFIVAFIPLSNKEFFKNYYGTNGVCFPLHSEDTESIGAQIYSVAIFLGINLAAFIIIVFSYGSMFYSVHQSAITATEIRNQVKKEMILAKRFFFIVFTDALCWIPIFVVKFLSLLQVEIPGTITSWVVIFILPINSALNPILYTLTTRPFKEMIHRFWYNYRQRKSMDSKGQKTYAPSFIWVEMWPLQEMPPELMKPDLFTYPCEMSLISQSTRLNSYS
Assay type: cell-based
Procedure, shortened: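 OVCAR5 cells (endogenous RXFP1) pretreated 40 min at 37° C with 1 mM IBMX, then exposed to peptides in serum-free medium for 30 min at 37° C. Lysate cAMP read by HTRF; EC50 from variable-slope sigmoidal fit; Emax as % of H2-relaxin maximal cAMP in same run.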

| Structure (SMILES) | EC50 |
| --- | --- |
| CCCCCCCCCCCCCC(=O)N[C@@H](CCC(=O)N[C@@H](CCC(=O)N[C@@H](CCC(=O)NCCOCCOCC(=O)NCCOCCOCC(=O)NCCOCCOCC(=O)NCCCC[C@H](NC(=O)[C@H](CCCCNC(C)=O)NC(=O)[C@H](CCCCN)NC(=O)[C@H](CCCNC(=N)N)NC(=O)C(C)(C)NC(=O)[C@H](CO)NC(=O)[C@H](Cc1c[nH]c2ccccc12)NC(=O)[C@@H](NC(=O)[C@H](CO)NC(=O)[C@H](CCCC)NC(=O)CNC(=O)[C@H](CCC(=O)O)NC(=O)C(C)(C)NC(=O)C(C)(C)NC(=O)[C@@H](NC(=O)[C@H](CCCCNC(C)=O)NC(=O)[C@H](C)NC(=O)[C@H](CCCNC(=N)N)NC(=O)[C@@H](NC(=O)[C@H](CCCCN)NC(=O)[C@H](CCC(=O)O)NC(=O)[C@H](CCCNC(=N)N)NC(=O)CNC(=O)[C@H](CCC(=O)O)NC(=O)[C@H](CC(C)C)NC(C)=O)C(C)C)[C@@H](C)CC)[C@@H](C)O)C(N)=O)C(=O)O)C(=O)O)C(=O)O [compound 178] (Ac-LEGREKVRAK(Ac)I[Aib][Aib]EG[Nle]STWS[Aib]RKK(Ac)K([AEEA-AEEA-AEEA-γGlu-γGlu-γGlu-Myristoyl])-NH2) | 17.6 nM |

Same assay, conditions: OVCAR-5; maximal cAMP relative to H2-relaxin maximum (100%); read-out: EMax, OVCAR 5 cells (cAMP)

| Structure (SMILES) | Emax |
| --- | --- |
| CCCCCCCCCCCCCCCC(=O)N[C@@H](CCC(=O)N[C@@H](CCC(=O)N[C@@H](CCC(=O)NCCCC[C@H](NC(=O)COCC(=O)NCCCOCCOCCOCCCNC(=O)[C@H](CCCCNC(C)=O)NC(=O)[C@H](CCCCN)NC(=O)[C@H](CCCNC(=N)N)NC(=O)C(C)(C)NC(=O)[C@H](CO)NC(=O)[C@H](Cc1c[nH]c2ccccc12)NC(=O)[C@@H](NC(=O)[C@H](CO)NC(=O)[C@H](CCC(N)=O)NC(=O)CNC(=O)[C@H](CCC(=O)O)NC(=O)C(C)(C)NC(=O)C(C)(C)NC(=O)[C@@H](NC(=O)[C@H](CCCCNC(C)=O)NC(=O)[C@H](C)NC(=O)[C@H](CCCNC(=N)N)NC(=O)[C@@H](NC(=O)[C@H](CCCCN)NC(=O)[C@H](CCC(=O)O)NC(=O)[C@H](CCCNC(=N)N)NC(=O)CNC(=O)[C@H](CCC(=O)O)NC(=O)[C@H](CC(C)C)NC(C)=O)C(C)C)[C@@H](C)CC)[C@@H](C)O)C(N)=O)C(=O)O)C(=O)O)C(=O)O [compound 176] (Ac-LEGREKVRAK(Ac)I[Aib][Aib]EGQSTWS[Aib]RKK(Ac)-X13) | 90% |
| CCCCCCCCCCCCCCCC(=O)N[C@@H](CCC(=O)N[C@@H](CCC(=O)N[C@@H](CCC(=O)NCCCC[C@H](NC(=O)COCC(=O)NCCCOCCOCCOCCCNC(=O)COCC(=O)NCCCOCCOCCOCCCNC(=O)[C@H](CCCCNC(C)=O)NC(=O)[C@H](CCCCN)NC(=O)[C@H](CCCNC(=N)N)NC(=O)C(C)(C)NC(=O)[C@H](CO)NC(=O)[C@H](Cc1c[nH]c2ccccc12)NC(=O)[C@@H](NC(=O)[C@H](CO)NC(=O)[C@H](CCC(N)=O)NC(=O)CNC(=O)[C@H](CCC(=O)O)NC(=O)C(C)(C)NC(=O)C(C)(C)NC(=O)[C@@H](NC(=O)[C@H](CCC(N)=O)NC(=O)[C@H](C)NC(=O)[C@H](CCCNC(=N)N)NC(=O)[C@@H](NC(=O)[C@H](CCCCN)NC(=O)[C@H](CCC(=O)O)NC(=O)[C@H](CCCNC(=N)N)NC(=O)CNC(=O)[C@H](CCC(=O)O)NC(=O)[C@H](CC(C)C)NC(C)=O)C(C)C)[C@@H](C)CC)[C@@H](C)O)C(N)=O)C(=O)O)C(=O)O)C(=O)O [compound 177] (Ac-LEGREKVRAQI[Aib][Aib]EGQSTWS[Aib]RKK(Ac)-X12) | 91% |
| CCCCCCCCCCCCCC(=O)N[C@@H](CCC(=O)N[C@@H](CCC(=O)N[C@@H](CCC(=O)NCCOCCOCC(=O)NCCOCCOCC(=O)NCCOCCOCC(=O)NCCCC[C@H](NC(=O)[C@H](CCCCNC(C)=O)NC(=O)[C@H](CCCCN)NC(=O)[C@H](CCCNC(=N)N)NC(=O)C(C)(C)NC(=O)[C@H](CO)NC(=O)[C@H](Cc1c[nH]c2ccccc12)NC(=O)[C@@H](NC(=O)[C@H](CO)NC(=O)[C@H](CCCC)NC(=O)CNC(=O)[C@H](CCC(=O)O)NC(=O)C(C)(C)NC(=O)C(C)(C)NC(=O)[C@@H](NC(=O)[C@H](CCCCNC(C)=O)NC(=O)[C@H](C)NC(=O)[C@H](CCCNC(=N)N)NC(=O)[C@@H](NC(=O)[C@H](CCCCN)NC(=O)[C@H](CCC(=O)O)NC(=O)[C@H](CCCNC(=N)N)NC(=O)CNC(=O)[C@H](CCC(=O)O)NC(=O)[C@H](CC(C)C)NC(C)=O)C(C)C)[C@@H](C)CC)[C@@H](C)O)C(N)=O)C(=O)O)C(=O)O)C(=O)O [compound 178] (Ac-LEGREKVRAK(Ac)I[Aib][Aib]EG[Nle]STWS[Aib]RKK(Ac)K([AEEA-AEEA-AEEA-γGlu-γGlu-γGlu-Myristoyl])-NH2) | 93% |
| CCCCCCCCCCCCCCCC(=O)N[C@@H](CCC(=O)N[C@@H](CCC(=O)N[C@@H](CCC(=O)NCCCC[C@H](NC(=O)COCCOCCNC(=O)COCCOCCNC(=O)COCCOCCNC(=O)[C@H](CCCCNC(C)=O)NC(=O)[C@H](CCCCN)NC(=O)[C@H](CCCNC(=N)N)NC(=O)C(C)(C)NC(=O)[C@H](CO)NC(=O)[C@H](Cc1ccc(O)cc1)NC(=O)[C@@H](NC(=O)[C@H](CO)NC(=O)[C@H](CCC(N)=O)NC(=O)CNC(=O)[C@H](CCC(=O)O)NC(=O)C(C)(C)NC(=O)C(C)(C)NC(=O)[C@@H](NC(=O)[C@H](CCCCNC(C)=O)NC(=O)[C@H](C)NC(=O)[C@H](CCCNC(=N)N)NC(=O)[C@@H](NC(=O)[C@H](CCCCN)NC(=O)[C@H](CCC(=O)O)NC(=O)[C@H](CCCNC(=N)N)NC(=O)CNC(=O)[C@H](CCC(=O)O)NC(=O)[C@H](CC(C)C)NC(C)=O)C(C)C)[C@@H](C)CC)[C@@H](C)O)C(N)=O)C(=O)O)C(=O)O)C(=O)O [compound 179] (Ac-LEGREKVRAK(Ac)I[Aib][Aib]EGQSTYS[Aib]RKK(Ac)[AEEA][AEEA][AEEA]K([γGlu-γGlu-γGlu-Palmitoyl])-NH2) | 80% |
| CCCCCCCCCCCCCCCCCC(=O)N[C@@H](CCC(=O)N[C@@H](CCC(=O)N[C@@H](CCC(=O)N[C@@H](CCC(=O)NCCOCCOCC(=O)NCCOCCOCC(=O)NCCOCCOCC(=O)NCCOCCOCC(=O)NCCCC[C@H](NC(=O)[C@H](CCCCNC(C)=O)NC(=O)[C@H](CCCCN)NC(=O)[C@H](CCCNC(=N)N)NC(=O)C(C)(C)NC(=O)[C@H](CO)NC(=O)[C@H](Cc1c[nH]c2ccccc12)NC(=O)[C@@H](NC(=O)[C@H](CO)NC(=O)[C@H](CCC(N)=O)NC(=O)CNC(=O)[C@H](CCC(=O)O)NC(=O)C(C)(C)NC(=O)C(C)(C)NC(=O)[C@@H](NC(=O)[C@H](CCCCNC(C)=O)NC(=O)[C@H](C)NC(=O)[C@H](CCCNC(=N)N)NC(=O)[C@@H](NC(=O)[C@H](CCCCN)NC(=O)[C@H](CCC(=O)O)NC(=O)[C@H](CCCNC(=N)N)NC(=O)CNC(=O)[C@H](CCC(=O)O)NC(=O)[C@H](CC(C)C)NC(C)=O)C(C)C)[C@@H](C)CC)[C@@H](C)O)C(N)=O)C(=O)O)C(=O)O)C(=O)O)C(=O)O [compound 180] (Ac-LEGREKVRAK(Ac)I[Aib][Aib]EGQSTWS[Aib]RKK(Ac)K([AEEA-AEEA-AEEA-AEEA-γGlu-γGlu-γGlu-γGlu-Stearoyl])-NH2) | 84% |
| CCCCCCCCCCCCCCCC(=O)N[C@@H](CCC(=O)N[C@@H](CCC(=O)N[C@@H](CCC(=O)NCCCC[C@H](NC(=O)CCOCCOCCOCCOCCOCCOCCOCCOCCNC(=O)[C@H](CCCCNC(C)=O)NC(=O)[C@H](CCCCN)NC(=O)[C@H](CCCNC(=N)N)NC(=O)C(C)(C)NC(=O)[C@H](CO)NC(=O)[C@H](Cc1c[nH]c2ccccc12)NC(=O)[C@@H](NC(=O)[C@H](CO)NC(=O)[C@H](CCCC)NC(=O)CNC(=O)[C@H](CCC(=O)O)NC(=O)C(C)(C)NC(=O)C(C)(C)NC(=O)[C@@H](NC(=O)[C@H](CCCCNC(C)=O)NC(=O)[C@H](C)NC(=O)[C@H](CCCNC(=N)N)NC(=O)[C@@H](NC(=O)[C@H](CCCCN)NC(=O)[C@H](CCC(=O)O)NC(=O)[C@H](CCCNC(=N)N)NC(=O)CNC(=O)[C@H](CCC(=O)O)NC(=O)[C@H](CC(C)C)NC(C)=O)C(C)C)[C@@H](C)CC)[C@@H](C)O)C(N)=O)C(=O)O)C(=O)O)C(=O)O [compound 181] (Ac-LEGREKVRAK(Ac)I[Aib][Aib]EG[Nle]STWS[Aib]RKK(Ac)[PEG8]K([γGlu-γGlu-γGlu-Palmitoyl])-NH2) | 79% |
